The source of these data is PMC6743422, “Preclinical disposition of MGS0274 besylate, a prodrug of a potent group II metabotropic glutamate receptor agonist MGS0008 for the treatment of schizophrenia” (Pharmacology Research & Perspectives, 2019).

As usually defined, the fraction unbound is free concentration divided by total concentration.

For data set [1] the following is noted: humans, cited from earlier work; for oral bioavailability compared with parent compounds: transportable prodrugs.
Details of data set [2]: method as in PMID 17712352, PMID 11744608. Conditions: dogs; cited from earlier work.
Details of data set [3]: method as in PMID 25382826, PMID 17228865. Conditions: rats; cited from earlier work.
For data set [4], the system named is positive and negative symptoms of schizophrenia. Also noted: method as in PMID 17767166. Conditions: phase 2 proof-of-concept trial, compared with placebo; cited from earlier work.
Details of data set [5]: method as in PMID 17767166. Conditions: humans; cited from earlier work.
Details of data set [6]: method as in PMID 25382826. Particulars: monkeys; cited from earlier work.
Another data set relates to schizophrenia. Also noted: method as in PMID 24772351. Particulars: phase 3 clinical trial; cited from earlier work.
The next data set can be described thus: Stability in buffers. The format is physicochemical. Conditions: pH 1.2 and 6.5 as surrogate for gastrointestinal fluids; data not shown.
Data set [7] deals with rat cryopreserved hepatocytes. Briefly: In vitro metabolite profiling in rat cryopreserved hepatocytes. It is filed as in vitro ADME. Particulars: rat hepatocytes 0.5 million cells/mL, 37°C, 1 h, [14C]MGS0274 besylate 10 μmol/L. How it is done: (§1) Rat, monkey, or human cryopreserved hepatocytes in Leivovitz L‐15 medium at 0.5 million cells/mL were incubated at 37°C for 1 hour with [^14C]MGS0274 besylate at 10 μmol/L. The reaction was terminated by adding 10% w/v trichloroacetic acid solution, and the resultant mixture was centrifuged. Aliquots of the supernatant were subjected to bioanalysis using high‐performance liquid chromatography equipped with radiochemical flow detection (RI‐HPLC) (see Table S1‐B). Aliquots of the supernatant from unlabeled incubation samples and authentic standards were also injected into a liquid chromatography‐mass spectrometry (LC‐MS) system under the same chromatographic conditions to compare their chromatographic retention times and mass spectral data (see Table S1‐B).

In data set [8] the test system is monkey cryopreserved hepatocytes. Briefly: In vitro metabolite profiling in monkey cryopreserved hepatocytes. Conditions: monkey hepatocytes 0.5 million cells/mL, 37°C, 1 h, [14C]MGS0274 besylate 10 μmol/L. The format is in vitro ADME. On the procedure: as §1
Data set [9] can be described thus: Plasma protein binding in human plasma. It is filed as in vitro ADME. Particulars: pH 7.4, 0.1, 1, and 10 μg/mL as MGS0274, equilibrium dialysis 5 h, 37°C. On the procedure:
(§2) [^14C]MGS0008 was spiked with rat, monkey, or human plasma at final concentrations of 0.1, 1, and 10 μg/mL. The protein binding was evaluated according to a previously published method.11 MGS0274 besylate was spiked with monkey or human plasma at final concentrations of 0.1, 1, and 10 μg/mL as MGS0274, which was placed in a donor compartment of a 96‐well equilibrium dialysis plate (Dialysis Membrane Strips MWCO 12‐14K; HT Dialysis, Gales Ferry, CT). Sodium phosphate buffer (0.05 M, pH7.4) containing sodium chloride (0.07 M) was placed in a reservoir compartment. After incubation for 5 hours at a rate of 100 rpm at 37°C in humidified air‐5% CO2, aliquots of the plasma and dialysate were collected from each compartment, mixed with acetonitrile/methanol (9:1, v/v) containing [^2H4]MGS0274 besylate, and centrifuged. Aliquots of the supernatant were subjected to bioanalysis using liquid chromatography‐tandem mass spectrometry (LC‐MS/MS) (see Table S1‐A). The protein binding (%) was calculated based on the instruction manual of the 96‐well plate.
Background: In equilibrium dialysis free small molecules cross a membrane that holds back macromolecules.

Data set [10] concerns human cryopreserved hepatocytes. Kind of data set: In vitro metabolite profiling in human cryopreserved hepatocytes. It is filed as in vitro ADME. Conditions: human hepatocytes 0.5 million cells/mL, 37°C, 1 h, [14C]MGS0274 besylate 10 μmol/L. How it is done: as §1
A short description of data set [11]: Hydrolytic activity against MGS0274 in monkey serum and tissue S9 fractions. It is filed as in vitro ADME. Particulars: monkey serum. How it is done:
(§3) Rat, monkey, or human serum that had been pre‐incubated for 5 minutes at 37°C was spiked with MGS0274 besylate at 10 μmol/L. After incubation for 5 to 60 minutes, the reaction was terminated by adding acetonitrile/methanol/formic acid (90:10:1, v/v/v) containing [^13C2 ^15N]MGS0008, and the resultant mixture was centrifuged. Tissue S9 fractions with final protein concentrations of 0.25 mg/mL were pre‐incubated for 5 minutes at 37°C, then spiked with MGS0274 besylate at 10 μmol/L. After incubation for 1 to 5 minutes, the reaction was terminated by adding acetonitrile/methanol/formic acid (90:10:1, v/v/v) containing [^13C2 ^15N]MGS0008, and the resultant mixture was centrifuged. Aliquots of the supernatant were subjected to bioanalysis using LC‐MS/MS (see Table S1‐C). The formation rate of MGS0008 from MGS0274 in the reaction mixture was calculated using the following equation: Formation ratenmol/min/mg protein=concentration of MGS0008,nmol/mL/incubation time,min/protein concentration,mg protein/mL

The nature of data set [12]: Hydrolytic activity against MGS0274 in human serum and tissue S9 fractions. It is filed as in vitro ADME. How it is done: as §3
Data set [13] can be described thus: Hydrolytic activity against MGS0274 in rat serum and tissue S9 fractions. It is filed as in vitro ADME. Particulars: rat serum. On the procedure: as §3
The nature of data set [14]: Plasma protein binding in monkey plasma. It is filed as in vitro ADME, cynomolgus monkey. Particulars: pH 7.4, 0.1, 1, and 10 μg/mL as MGS0274, equilibrium dialysis 5 h, 37°C. How it is done: as §2
On the set-up of data set [15]: method as in earlier work. Particulars: cited from earlier work.
The next data set concerns CYP1A2 mRNA. Briefly: CYP induction in primary cultured cryopreserved human hepatocytes, CYP1A2 mRNA. It is filed as in vitro ADME. Conditions: positive control omeprazole 50 μM. On the procedure: (§4) The primary cultured cryopreserved human hepatocytes were plated in a collagen‐coated 96‐well plate (Becton Dickinson, Franklin Lakes, NJ) with Williams’ Medium E (Invitrogen, Carlsbad, CA) containing Geltrex^TM (Invitrogen) and Maintenance Supplements (Invitrogen) and maintained in humidified air‐5% CO2 at 37°C for 3 days. Then, the cells were cultured for three consecutive 24‐hour treatments with MGS0008 (3‐30 µmol/L), with MGS0274 besylate (3‐30 µmol/L), or with positive controls (omeprazole for CYP1A2 at 50 µmol/L, phenobarbital for CYP2B6 at 1000 µmol/L, or rifampicin for CYP3A4 at 10 µmol/L). The mRNA expression levels of CYP1A2, 2B6, and 3A4 were measured using the real‐time polymerase chain reaction (RT‐PCR) method (7500 Fast RT‐PCR system; Applied Biosystems, Foster City, CA) with TaqMan® Fast Universal PCR Master Mix (probe ID: Hs00167927_m1 for CYP1A2, Hs04183483_g1 for CYP2B6, and Hs00604506_ml for CYP3A4; Applied Biosystems). The fold change in the mRNA expression was calculated using the 2^‐ΔΔCT method.22

The test system of the next data set is CYP2B6 mRNA. Kind of data set: CYP induction in primary cultured cryopreserved human hepatocytes, CYP2B6 mRNA. Particulars: positive control phenobarbital 1000 μM. How it is done: as §4

Where two headings read alike, the source gives them in different places.

As to `N[C@@]1(C(=O)O)CC[C@H]2[C@H](C(=O)O)[C@H]21` [LY354740, (+)‐2‐aminobicyclo[3.1.0]hexane‐2,6‐dicarboxylic acid], the oral bioavailability result in data set [1] is “low”; in [2], “high”.

Regarding `N[C@@]1(C(=O)O)CS(=O)(=O)[C@H]2[C@H](C(=O)O)[C@H]21` [LY404039], the oral bioavailability result in [3] was “high”; in data set [1], “low”.

Take `C[C@H](N)C(=O)N[C@@]1(C(=O)O)CC[C@H]2[C@H](C(=O)O)[C@H]21` [LY544344]: the “oral bioavailability compared with parent compounds” value in data set [1] is listed as “improved oral bioavailability”.

Consider `CSCC[C@H](N)C(=O)N[C@@]1(C(=O)O)CS(=O)(=O)[C@H]2[C@H](C(=O)O)[C@H]21` [LY2140023], for which the “effect on positive and negative symptoms of schizophrenia” value in data set [4] is reported as “significantly improved”. Moreover, the “oral bioavailability compared with parent compounds” value in [1] was “improved oral bioavailability”. Also, the “systemic exposure to the prodrug, relative to its parent compound” value in [5] is reported as “roughly 30%”. Further, the “systemic exposure to the prodrug, share of circulating radioactivity” value in data set [6] is approximately 15%. Also, in the data set with schizophrenia, the efficacy in schizophrenia entry is given as “failed to demonstrate efficacy”.

Turning to `CC1CCC(C(C)C)C(OC(=O)OC(C)OC(=O)C2C3CC(F)C(N)(C(=O)O)C32)C1` (stereo not drawn) [MGS0274], the stability in buffers entry in the data set “Stability in buffers” is recorded as “confirmed”. In addition, the “metabolite profile of MGS0274” value in data set [7] was “nearly and completely hydrolyzed to MGS0008”; in data set [8] it was “nearly and completely hydrolyzed to MGS0008”; in [10] it was “nearly and completely hydrolyzed to MGS0008”. The fraction unbound at 5 h in data set [9] is 0.039 to 0.043; in data set [14] it was 0.065 to 0.076. The figures for the stability in serum entry in [11], in [12] (human serum) and in [13] were “stable”, “stable” and “unstable”, respectively. In [12] (human kidney S9 0.25 mg/mL, MGS0274 besylate 10 μmol/L, 37°C, MGS0008 not detected in the reaction mixture), the “Formation rate of MGS0008” value was “no apparent hydrolytic activity”.

For the molecule `CC(C)[C@@H]1CC[C@@H](C)C[C@H]1O` [l‐menthol], in data set [15], the acceptable daily intake was 4 mg/kg.

As to `COc1ccc2[nH]c([S+]([O-])Cc3ncc(C)c(OC)c3C)nc2c1` (stereo not drawn) [omeprazole, reference compound], the “Fold change of mRNA expression level CYP1A2” value is given as 35.9 fold in the data set on CYP1A2 mRNA (hepatocyte lot Hu1487), 20.7 fold in the data set on CYP1A2 mRNA (hepatocyte lot Hu8114) and 59.2 fold in the data set with CYP1A2 mRNA (hepatocyte lot Hu8123).

On to `CCC1(c2ccccc2)C(=O)NC(=O)NC1=O` [phenobarbital, reference compound], for which the “Fold change of mRNA expression level CYP2B6” value in the data set on CYP2B6 mRNA (hepatocyte lot Hu1487) is 16.4 fold; with CYP2B6 mRNA (hepatocyte lot Hu8114), 35.1 fold; in the data set on CYP2B6 mRNA (hepatocyte lot Hu8123) it was 45.7 fold.
